Reference: patent US20040009921A1, “Methods and compositions for the treatment of cancer” (Allergan, Inc., priority 2002, published 2004)

How the values were obtained:
RARα = molecular target: T1, RARα (Homo sapiens, UniProt P10276); test: Western blotting of RAR protein in transfected HEK293 cells; type: cell-based; settings: HEK293 co-expressing RXRα with RARα
T1 construct: expressed in transfected cells; host or cells: HEK293
T1 sequence (P10276 1-462): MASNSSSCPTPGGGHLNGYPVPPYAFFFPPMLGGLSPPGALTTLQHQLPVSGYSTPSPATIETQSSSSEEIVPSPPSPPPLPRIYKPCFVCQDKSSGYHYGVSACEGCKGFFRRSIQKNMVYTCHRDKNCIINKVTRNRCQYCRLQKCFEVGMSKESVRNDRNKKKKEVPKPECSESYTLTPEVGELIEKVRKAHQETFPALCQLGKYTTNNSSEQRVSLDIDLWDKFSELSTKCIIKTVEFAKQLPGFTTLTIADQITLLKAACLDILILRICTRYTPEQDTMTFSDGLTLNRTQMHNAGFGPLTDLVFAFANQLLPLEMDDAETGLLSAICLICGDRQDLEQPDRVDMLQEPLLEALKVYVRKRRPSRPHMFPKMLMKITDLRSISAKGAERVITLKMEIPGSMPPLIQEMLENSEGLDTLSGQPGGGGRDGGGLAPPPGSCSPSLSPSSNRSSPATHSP
Description: HEK293 cells transfected with expression vectors for β-catenin (4 μg) and RXRs (2 μg) or RARs (2 μg) and treated with ligands at concentrations indicated at the top of each gel. Protein levels were detected by Western blotting as shown in this figure. β-catenin and RARs were detected by HRP-conjugated antibodies against their V5 tag. RXRs were detected by HRP-conjugated antibodies against their Flag tag. […] In this experiment, the amount of expression vectors for RXRα and RARs used in transfection was 1 μg.
HEK293 cells were seeded at a density of 2×10 per dish were seeded into 100-mm dishes and cultured overnight in DMEM containing 10% FBS. Cells were transfected with 1-4 μg of various cDNA or parental expression vectors (8 μg of DNA in total) using Lipofectamine®. Five hours after transfection, cells were fed with fresh culture media DMEM containing 10% charcoal-treated FBS with vehicle DMSO or retinoids prepared in DMSO. […]
Total cell lysates were homogenized by passing through a QIAshredder® (Qiagen) and cleared from insoluble materials by centriftigation at 12,000 g. Protein concentration was determined using a Bradford total protein assay kit (Bio-Rad). […]

β-catenin mRNA = test: Northern blotting of β-catenin mRNA in RBC cells; type: cell-based, human; settings: RBC cells treated overnight (17 hours)
Description: (A) Western blotting analysis of HEK293 cells transfected with a combination of expression vectors for LacZ (2 μg), V5-tagged β-catenin(4 μg), and Flag-tagged RXRα (2 μg) as indicated below the gels. […] RXRα protein was measured using an HRP-conjugated mouse monoclonal antibody against the Flag tag. (B) Western blotting analysis of stable cell line RBC that overexpresses both β-catenin and RXRα. […] (C) Western blotting analysis of stable cell line CAT that overexpresses only β-catenin. […] Endogenous and overexpressed β-catenin were detected using a rabbit polyclonal antibody as indicated by “Total” whereas overexpressed β-catenin was analyzed using a mouse monoclonal antibody against the V5 tag. Endogenous and overexpressed RXRα were detected by a rabbit polyclonal antibody against RXRα, whereas overexpressed RXRα was determined by an HRP-conjugated mouse monoclonal antibody against the Flag tag. (D) Western blotting analysis of HEK293 cells transfected with a fixed amount of β-catenin (4 μg) plus an increasing amount of RXRα as indicated at the top. […] (E) Western blotting analysis of HEK293, CV-1, and Hela cells transfected with 2 μg of RXRα and 4 μg of wild type or mutant β-catenin. α. […] (F) Northern blotting analysis of RBC cells using β-catenin as a probe.

[1] = molecular target: T2, RXRα and ΔNβ-catenin interaction (Homo sapiens, UniProt P19793); test: In vivo protein crosslinking and immunoprecipitation; type: cell-based; settings: HEK293, 1 μM AGN 4204 or vehicle before DSP crosslinking
T2 sequence (P19793 1-462): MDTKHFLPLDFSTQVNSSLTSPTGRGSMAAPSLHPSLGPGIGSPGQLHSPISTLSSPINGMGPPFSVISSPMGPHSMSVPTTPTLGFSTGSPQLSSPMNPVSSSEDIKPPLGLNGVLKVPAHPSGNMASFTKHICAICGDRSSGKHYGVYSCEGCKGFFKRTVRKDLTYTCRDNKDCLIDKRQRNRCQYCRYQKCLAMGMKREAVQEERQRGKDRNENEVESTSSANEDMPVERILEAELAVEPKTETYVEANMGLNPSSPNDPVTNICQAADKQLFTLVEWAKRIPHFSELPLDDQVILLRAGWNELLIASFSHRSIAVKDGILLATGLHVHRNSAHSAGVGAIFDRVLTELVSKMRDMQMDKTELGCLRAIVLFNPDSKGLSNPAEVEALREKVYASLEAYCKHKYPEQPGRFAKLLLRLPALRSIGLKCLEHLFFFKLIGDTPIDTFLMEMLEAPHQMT
T2 sequence (P35222 51-781 partner): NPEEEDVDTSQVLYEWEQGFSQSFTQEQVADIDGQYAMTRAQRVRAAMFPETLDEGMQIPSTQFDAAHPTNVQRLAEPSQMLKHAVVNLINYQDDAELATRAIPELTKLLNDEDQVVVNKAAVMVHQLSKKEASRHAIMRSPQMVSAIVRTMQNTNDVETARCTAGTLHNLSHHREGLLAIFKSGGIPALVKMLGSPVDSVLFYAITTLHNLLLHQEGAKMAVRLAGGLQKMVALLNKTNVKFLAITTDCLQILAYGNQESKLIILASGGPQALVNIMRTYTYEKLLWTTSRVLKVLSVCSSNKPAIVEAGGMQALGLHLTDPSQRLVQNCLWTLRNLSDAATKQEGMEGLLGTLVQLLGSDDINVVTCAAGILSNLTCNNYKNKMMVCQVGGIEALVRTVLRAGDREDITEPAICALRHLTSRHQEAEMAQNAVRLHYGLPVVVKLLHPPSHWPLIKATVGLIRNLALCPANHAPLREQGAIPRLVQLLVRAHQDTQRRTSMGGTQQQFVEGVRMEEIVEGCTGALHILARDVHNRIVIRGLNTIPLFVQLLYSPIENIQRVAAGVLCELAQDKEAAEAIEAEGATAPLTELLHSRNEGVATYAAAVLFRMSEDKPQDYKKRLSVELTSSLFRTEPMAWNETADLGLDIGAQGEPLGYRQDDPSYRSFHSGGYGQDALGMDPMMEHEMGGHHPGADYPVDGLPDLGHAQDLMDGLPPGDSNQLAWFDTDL
Description: HEK293 cells were transfected with a combination of 8 μg of ΔNβ-catenin (C) and 4 μg of RXRα. […] Cell lysates were subjected to immunoprecipitation using antibodies against the Flag tag in RXRα. Crosslinked molecules in immunoprecipitates were dissociated by reduction with β-mercaptoethanol before Western blotting analysis using HRP-conjugated antibodies against the v5 tag in ΔNβ-catenin (Top panel).
HEK293 cells were cultured to about 80% confluence in 150-mm Biocoat poly-D-Lysine plates (VWR Cat#354550), and then transfected with expression vectors for ΔN-β-catenin, and RXRα using Lipofectamine® Transfection Reagent (Invitrogen). Cells were then cultured in high glucose DMEM medium containing 10% activated charcoal-extracted fetal bovine serum.
The reaction was quenched by adding Tris buffer at pH7.5 to a final concentration of 20 mM. […]
To determine whether RXRs and β-catenin interact with each other, HEK293 cells were transfected with expression vectors for RXRα and/or ΔNβ-catenin. […] After completion of the cross-linking reaction, cell extracts were prepared and analyzed by immunoprecipitation using antibodies against the FLAG epitope in an RXRα-FLAG fusion protein, followed by Western blotting analysis using antibodies against the V5 Tag in ΔNβ-catenin. […]

Q: Which results are given for `CC(/C=C/[C@@H]1C[C@]1(C)c1ccc2c(c1)C(C)(C)CCC2(C)C)=C\C(=O)O` [AGN 4204]?
A: degradation of RARα (RARα): RXR-ligand-dependent degradation; β-catenin mRNA level (β-catenin mRNA): no effects; interaction between RXRα and ΔNβ-catenin (co-immunoprecipitation) [1]: ligand-independent
